Reference: patent US10906929B2, “Phosphoramidate nucleoside derivatives as anticancer agents” (NuCana plc, priority 2016, dated 2021)

Assays:
[1] = test system: HEL92.1.7 Erythroleukaemia; assay: In vitro viability assay, CellTiterGlo; format: cell-based; conditions: HEL92.1.7, CellTiterGlo, 72 h
Protocol: In vitro viability assay was performed to assess the effects of compounds on cell viability in selected cell lines over 72 h using the CellTiterGlo (CTG, Promega-G7573) assay. The tests were performed in duplicates with treatment of compounds at 9 points, 3.16 folds titration in 96 well plates over ˜72 h. The compound starting concentrations were […]. Cell viability assay using CellTiterGlo in 96-well plate were performed. Compounds were dissolved to 40 mM with thawed 100% DMSO. Compounds were serially diluted at 3.16-fold in thawed DMSO, and warmed to 37° C. before being dissolved in media (2 μl+200 μl). After compounds were dissolved in media, media containing compounds were warmed to 37° C. in incubator and then compounds in media were added to cell plates (50 μl+50 μl) in duplicates. The compounds' final concentrations were from 198 μM to 19.9 nM. Solubility of all compounds was checked and recorded again, then the plates were transferred to CO2 tissue culture incubator immediately and incubated for 3 days. DMSO final concentration is 0.5%.

KG1a cell line = assay: Annexin V/propidium iodide apoptosis assay; format: cell-based; conditions: 72 h, dose required to kill 50% of the cells
Protocol: Cells of the KG1a cell line were maintained in RPMI medium (Invitrogen, Paisley, UK) supplemented with 100 units/ml penicillin, 100 μg/ml streptomycin and 20% foetal calf serum. Cells were subsequently aliquoted (10^5 cells/100 μl) into 96-well plates and were incubated at 37° C. in a humidified 5% carbon dioxide atmosphere for 72 h in the presence of nucleoside analogues and their respective phosphoramidates at concentrations that were experimentally determined for each series of compounds. In addition, control cultures were carried out to which no drug was added. Cells were subsequently harvested by centrifugation and were analyzed by flow cytometry using the Annexin V assay.
Measurement of in vitro apoptosis. Cultured cells were harvested by centrifugation and then resuspended in 195 μl of calcium-rich buffer. Subsequently, 5 μl of Annexin V (Caltag Medsystems, Botolph Claydon, UK) was added to the cell suspension and cells were incubated in the dark for 10 mins prior to washing. Cells were finally resuspended in 190 μl of calcium-rich buffer together with 10 μl of propidium iodide. Apoptosis was assessed by dual-colour immunofluorescent flow cytometry as described previously. Subsequently LD50 values (the dose required to kill 50% of the cells in a culture) were calculated for each nucleoside analogue and phosphoramidate.
The data obtained in these experiments were evaluated using one way ANOVA. All data was confirmed as Gaussian or a Gaussian approximation using the omnibus K2 test. LD50 values were calculated from the non-linear regression and line of best-fit analysis of the sigmoidal dose-response curves. All statistical analyses were performed using Graphpad Prism 6.0 software (Graphpad Software Inc., San Diego, Calif.).

L1210 = assay: Cytostatic activity, cell counting (Coulter counter); format: cell-based; conditions: Mus musculus, L1210; uninfected, 48 h proliferation; read-out: IC50 L1210
Source text: (§1) Tumor cell cultures were infected with M. hyorhinis (ATCC 17981) and after two or more passages (to avoid bias by the initial inoculum) successful infection was confirmed using the MycoAlert™ mycoplasma detection kit (Lonza, Basel, Switzerland). Although this assay is only semi-quantitative, a maximal infection was observed 3 to 4 days after subcultivation of the mycoplasma-exposed cells. Chronically infected tumor cell lines are further referred to as Cell line.Hyor. All tumor cell cultures were maintained in Dulbecco's modified Eagle's medium (DMEM) (Invitrogen) supplemented with 10% fetal bovine serum (Biochrom AG, Berlin, Germany), 10 mm HEPES, and 1 mm sodium pyruvate (Invitrogen). Cells were grown at 37° C. in a humidified incubator with a gas phase containing 5% CO2.
(§2) The cytostatic activity of the test compounds was examined in mycoplasma-infected and uninfected cancer cell lines. When assaying the effect of M. hyorhinis infection, monolayer MCF7 and MCF7.Hyor cells were seeded in 48-well microtiter plates (Nunc™, Roskilde, Denmark) at 10,000 cells/well (Corning Inc., Corning, N.Y.) […]. After 24 h, the cells were exposed to different concentrations of test compound and allowed to proliferate for 72 h (to ensure sufficient cell proliferation and mycoplasma growth) after which the cells were trypsinized and counted using a Coulter counter (Analis, Suarlée, Belgium). Suspension cells (L1210, L1210.Hyor, FM3A, and FM3A.Hyor) were seeded in 96-well microtiter plates (Nunc) at 60,000 cells/well in the presence of different concentrations of test compound. The cells were allowed to proliferate for 48 h and then counted using a Coulter counter. The 50% inhibitory concentration (IC50) was defined as the compound concentration required to reduce cell proliferation by 50%.

MCF7 = assay: as above; format: cell-based; conditions: Homo sapiens, MCF7; uninfected, 72 h proliferation; read-out: IC50 MCF7
Source text: as §1, §2

[2] = test system: MCF7 cells infected with Mycoplasma hyorhnis (HYOR); assay: Cytostatic activity in mycoplasma-infected cells; format: cell-based, human
Source text: as §1, §2

U937 = assay: In vitro cytotoxicity, MTS assay; format: cell-based; conditions: Homo sapiens, U-937, 72 h, read-out: Inhibitory concentration (IC50) U937
Protocol: (§3) Cladribine phosphoramidate derivatives were evaluated against six leukaemic cell lines (KG1, U937, K562, NB4R2, NB4 and HL-60) in vitro. Inhibitory concentration (IC50) at which 50% of the cells were no longer viable (calculated using MTS assay) was determined. Cells were treated with Cladribine and its 3′-phosphoramidate derivatives at concentrations between 100 μM and 0.02 μM by serial dilutions and incubated for 72 h at 37° C., 5% CO2 in a final volume of 90 μL. Twenty microliters of MTS reagent (Promega UK Ltd, Southampton, Hants) was added to the tumour cell cultures and reaction incubated for a further 4 h at 37° C., 5% CO2. The absorbance of the reaction after this time was read by spectrophotometry at 490 nm and the percentage of viable cells calculated relative to untreated control cells in the same assay.

KG1 = assay: In vitro cytotoxicity, MTS assay; format: cell-based; conditions: Homo sapiens, KG-1, 72 h, read-out: Inhibitory concentration (IC50) KG1
Protocol: as §3

K562 = assay: In vitro cytotoxicity, MTS assay; format: cell-based; conditions: Homo sapiens, 72 h, read-out: Inhibitory concentration (IC50) K562
Protocol: as §3

NB4R2 = assay: In vitro cytotoxicity, MTS assay; format: cell-based; conditions: 72 h, read-out: Inhibitory concentration (IC50) NB4R2
Protocol: as §3

NB4 = assay: In vitro cytotoxicity, MTS assay; format: cell-based; conditions: Homo sapiens, NB-4, 72 h, read-out: Inhibitory concentration (IC50) NB4
Protocol: as §3

HL-60 = assay: In vitro cytotoxicity, MTS assay; format: cell-based; conditions: Homo sapiens, 72 h, read-out: Inhibitory concentration (IC50) HL-60
Protocol: as §3

## Nc1nc(Cl)nc2c1ncn2[C@H]1C[C@H](O)[C@@H](CO)O1 [Cladribine, cladribine, reference compound]
[1]
  Top Inhibition (%): 97.4%
[1]; Homo sapiens, HEL 92.1.7, read-out: EC50 (μM) Ab
  EC50: < 0.019 µM
KG1a cell line
  LD50: 0.18 μm
L1210
  IC50: 400 nM
MCF7
  IC50: 370 nM
[2]; Homo sapiens, MCF7, 72 h, read-out: IC50 MCF7/HYOR
  IC50: 9.3 µM
[2]; MCF7/HYOR versus MCF7
  Loss of potency: 25-fold
U937
  IC50: 20 nM
KG1
  IC50: 60 nM
K562
  IC50: 530 nM
NB4R2
  IC50: 60 nM
NB4
  IC50: 40 nM
HL-60
  IC50: 90 nM
